Source: paper PMC5787466, “Accelerated bottom-up drug design platform enables the discovery of novel stearoyl-CoA desaturase 1 inhibitors for cancer therapy” (Oncotarget, 2017)

Experiments:
A498 = test: Proliferation dose-response IC50, A498; type: cell-based; conditions: Homo sapiens, proliferative IC50, linear regression modeling of dose-response
Description: (§1) Error bars indicate standard deviation for n=2 replicates. […] To evaluate inhibition of SCD1 by these molecules, we used LC/MS to quantify changes in SCD1-catalyzed conversion of stearoyl-CoA to oleoyl-CoA in response to drug treatments in vitro using SCD1 protein extracted from murine liver (Figure 3c, Supplementary Figure 2g). […] Synthesis routes and spectral data including NMR and MS are also provided (Supplementary Figures 3-6).
(§2) Cells were seeded at 5,000 cells/well in clear-bottom 96-well plates in triplicate. Drug treatment was applied at 1:1000 in reduced serum conditions (3%). […] Alternatively, cells were plated 2x10^5/well in 12-well plates (Genesee Scientific) in triplicate prior to drug treatment. After 120-hour treatment, cell number was established using a Coulter Particle Counter (Beckman). Oleic acid-albumin (Sigma Aldrich) was added to media at 5µM, and was applied adjuvant to drug treatment. Drug stocks were prepared in DMSO (Sigma) at 1000x. IC50 dosing per cell line was calculated using CalcuSyn analytical software.

Caki2 = test: Proliferation dose-response IC50, Caki2; type: cell-based; conditions: Homo sapiens, CAKI-2; proliferative IC50, linear regression modeling of dose-response
Description: as §1, §2

Caki1 = test: Proliferation dose-response IC50, Caki1; type: cell-based; conditions: Homo sapiens, CAKI-1; proliferative IC50, linear regression modeling of dose-response
Description: as §1, §2

SCD1 = conditions: known inhibitor, no reference given; cited from earlier work
ACHN = test: Proliferation dose-response IC50, ACHN; type: cell-based; conditions: Homo sapiens, proliferative IC50, linear regression modeling of dose-response
Description: as §1, §2

RCC cell lines = test: Proliferation assay with exogenous oleic acid (OA) rescue; type: cell-based, Human; conditions: cells treated with proliferative IC50 dose, 72 hour, OA 5µg/mL
Text: Induction of the unfolded protein response (UPR) is a known biological response to SCD1 inhibition in tumor cells. […] The addition of exogenous OA was sufficient to reverse the activation of ATF6 (Figure 4b). Moreover, exogenous OA inhibited SSI-(1-4) mediated upregulation of the UPR markers BiP (heat shock 70 kDa protein) and CHOP (damage inducible transcript 3) protein levels in both A498 and ACHN cells (Figure 4c). Collectively these findings confirm that SSI-(1-4) reliably recapitulates the biological responses observed in tumor cells treated with known SCD1 inhibitors. […] Thus, SSI-4 is not predicted to have any major off-target effects through kinase inhibition (Supplementary Figures 7 and 8).
Results are presented as relative bioluminescence (BLI). […] Beta-actin is used as a loading control. (d) Proliferative response in patient-derived normal cells, and established tumor cell lines to treatment with MF-438 or SSI-(1-4).
Cells were seeded at 5,000 cells/well in clear-bottom 96-well plates in triplicate. Drug treatment was applied at 1:1000 in reduced serum conditions (3%). After 72 hours, cells were washed with PBS, and stored at -80 °C prior to analysis using CyQuant® Proliferation Analysis Kit (Invitrogen) er manufacturers’ protocol for relative fluorescence units. […] IC50 dosing per cell line was calculated using CalcuSyn analytical software.

[1] = target: T1, SCD1 protein extracted from murine liver (Mus musculus, UniProt P13516); test: In vitro SCD1 enzymatic inhibition by LC/MS (stearoyl-CoA to oleoyl-CoA, liver microsomes); type: biochemical; conditions: n=2
T1 construct: Microsomes were isolated from murine liver using Microsome Isolation Kit (BioVision); from tissue; host or cells: murine liver microsomes
T1 sequence (P13516 1-355): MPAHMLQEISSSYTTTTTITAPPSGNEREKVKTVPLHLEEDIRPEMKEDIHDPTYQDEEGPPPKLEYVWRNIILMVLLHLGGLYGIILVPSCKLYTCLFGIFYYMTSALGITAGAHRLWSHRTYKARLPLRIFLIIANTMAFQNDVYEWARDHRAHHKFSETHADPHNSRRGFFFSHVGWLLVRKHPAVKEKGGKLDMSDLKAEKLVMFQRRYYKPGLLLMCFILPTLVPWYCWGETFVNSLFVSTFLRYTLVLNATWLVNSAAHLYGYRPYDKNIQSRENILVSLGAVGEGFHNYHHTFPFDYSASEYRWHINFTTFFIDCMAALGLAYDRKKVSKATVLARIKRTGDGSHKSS
Text: as §1, with “After synthesis feasibility and cost analysis, we synthesized 38 of the selected compounds.” for “Error bars indicate standard deviation for n=2 replicates.”
Microsomes were isolated from murine liver using Microsome Isolation Kit (BioVision) per the manufacturer protocol. […] To quantify biotransformation of ^13C18-stearoyl CoA to ^13C18-oleoyl CoA for drug treatments relative to vehicle controls, supernatants were evaluated using the LC/MS^2 acyl CoA quantitation method of Magnes et al. and adapting selected reaction monitoring (SRM) for isotope-labeled acyl CoAs. […] SRM signal areas for isotope-labeled acyl CoAs were measured relative to the heptadecanoyl CoA I.S. using XCalibur software (Thermo), and percent enzyme inhibition determined by comparing ^13C18-oleoyl CoA quantities between treatment and DMSO control assays. […]

Compound: CNC(=O)COc1cncc(C(=O)N2CC[C@H](Oc3ccccc3Cl)C2)c1 [ChemBL375265, reference compound]
- IC50 (A498): 5 µM
- IC50 (Caki2): 0.5 µM
- IC50 (Caki1): 1 µM
- IC50 (SCD1): 400 nM
- IC50 (ACHN): 0.08 µM
- rescue of proliferation by exogenous oleic acid (OA) (RCC cell lines): fully restored proliferation

Compound: Cc1nnc(-c2ccc(N3CCC(Oc4ccccc4C(F)(F)F)CC3)nn2)s1 [MF-438, 2-methyl-5-(6-(4-(2-(trifluoromethyl)phenoxy)piperidin-1-yl)pyridazin-3-yl)-1,3,4-thiadiazole, reference compound]
- IC50 (A498): 0.008 µM
- IC50 (Caki2): 0.012 µM
- IC50 (Caki1): 0.007 µM
- IC50 [1]: 1.1 nM
- IC50 (ACHN): 0.006 µM
- rescue of proliferation by exogenous oleic acid (OA) (RCC cell lines): fully restored proliferation
